# Molecular target: Sigma 1 receptor
# Assay: competitive radioligand binding assay
substance,measurement,value
"9,13-epoxy-6-hydroxylabdan-15,16-olide [compound 11]",Ki,2900 nM

# — PMC3390464 (Phytochemistry, 2012)
